We go through eight compounds from US9850256B2, “Antibacterial basic biaromatic derivatives with aminoalkoxy substitution” (priority 2014, dated 2017).

Common to all, as to experiment: Bacterial growth minimal inhibitory concentration (microdilution, cation-adjusted Mueller-Hinton Broth)
The subject of one experiment is K. pneumoniae T6474. In kind it is cell-based, Klebsiella pneumoniae. The settings on record: Klebsiella pneumoniae, T6474; multiply-resistant strain (penicillin-, cephalosporin- and quinolone-resistant). On the procedure: (§1) Minimal Inhibitory Concentrations (MICs; mg/L) were determined in cation-adjusted Mueller-Hinton Broth by a microdilution method following the description given in “Methods for Dilution Antimicrobial Susceptibility Tests for Bacteria that Grow Aerobically”, Approved standard, 7th ed., Clinical and Laboratory Standards Institute (CLSI) Document M7-A7, Wayne, Pa., USA (2006).
(§2) All Example compounds were tested against several Gram positive and Gram negative bacteria. […] Staphylococcus aureus A798 is a multiply-resistant strain (methicillin- and quinolone-resistant), Klebsiella pneumoniae T6474 is a multiply-resistant strain (penicillin-, cephalosporin- and in particular quinolone-resistant), while E. coli ATCC25922 and Pseudomonas aeruginosa ATCC 27853 are quinolone-sensitive strains.

For a further experiment, the system named is S. aureus A798. In kind it is cell-based, Staphylococcus aureus. The settings on record: Staphylococcus aureus, A798; multiply-resistant strain (methicillin- and quinolone-resistant). On the procedure:
as §1, §2

The next experiment relates to E. coli ATCC25922. In kind it is cell-based. The settings on record: Escherichia coli, ATCC25922; quinolone-sensitive strain. The method, then: as §1, §2
The next experiment relates to P. aeruginosa ATCC 27853. In kind it is cell-based, Pseudomonas aeruginosa. The settings on record: Pseudomonas aeruginosa, ATCC27853; quinolone-sensitive strain. On the procedure: as §1, §2

≈ marks a conversion by molar mass, not a printed value.

The MIC is the lowest concentration that inhibits growth of the organism. For the compound `CN1CC[C@H](Oc2cccc(-c3cccc(CNCC[C@H]4CN(c5ccc6c(n5)NC(=O)CO6)C(=O)O4)c3)n2)C1` [Example $121, 6-[(S)-5-(2-{3-[6-((S)-1-methyl-pyrrolidin-3-yloxy)-pyridin-2-yl]-benzylamino}-ethyl)-2-oxo-oxazolidin-3-yl]-4H-pyrido[3,2-b][1,4]oxazin-3-one], the minimal inhibitory concentration (MIC) in the experiment with K. pneumoniae T6474 came to 0.5 µg/mL (≈ 0.918 µM); in the experiment on S. aureus A798, 0.25 µg/mL (≈ 0.459 µM); against E. coli ATCC25922 it was 0.5 µg/mL (≈ 0.918 µM); against P. aeruginosa ATCC 27853, 1 µg/mL (≈ 1.84 µM).
In the case of `O=C1COc2ccc(N3C[C@H](CCNCc4cccc(-c5cccc(O[C@@H]6CCNC6)n5)c4)OC3=O)nc2N1` [Example $118, 6-[(S)-2-oxo-5-(2-{3-[6-((R)-pyrrolidin-3-yloxy)-pyridin-2-yl]-benzylamino}-ethyl)-oxazolidin-3-yl]-4H-pyrido[3,2-b][1,4]oxazin-3-one], the minimum inhibitory concentration (MIC) with K. pneumoniae T6474 was 2 µg/mL (≈ 3.77 µM); in the experiment with S. aureus A798 it was 2 µg/mL (≈ 3.77 µM); against E. coli ATCC25922, 1 µg/mL (≈ 1.88 µM); in the experiment on P. aeruginosa ATCC 27853, 1 µg/mL (≈ 1.88 µM).
Turning to `NCCNCCOc1cccc(-c2cccc(CNCC[C@H]3CN(c4ccc5c(n4)NC(=O)CO5)C(=O)O3)c2)n1` [Example $156, 6-{(S)-5-[2-(3-{6-[2-(2-amino-ethylamino)-ethoxy]-pyridin-2-yl}-benzylamino)-ethyl]-2-oxo-oxazolidin-3-yl}-4H-pyrido[3,2-b][1,4]oxazin-3-one], the minimum inhibitory concentration (MIC) against K. pneumoniae T6474 turned out to be 2 µg/mL (≈ 3.65 µM); in the experiment on S. aureus A798, 1 µg/mL (≈ 1.83 µM); against E. coli ATCC25922 it was 1 µg/mL (≈ 1.83 µM); with P. aeruginosa ATCC 27853, 0.5 µg/mL (≈ 0.913 µM).
Turning to `O=C1COc2ccc(N3C[C@H](CCNCc4cccc(-c5cccc(OC6CCNC6)c5)c4)OC3=O)nc2N1` (mixture of isomers) [Example $103, 6-[(S)-2-oxo-5-(2-{[3′-((RS)-pyrrolidin-3-yloxy)-biphenyl-3-ylmethyl]-amino}-ethyl)-oxazolidin-3-yl]-4H-pyrido[3,2-b][1,4]oxazin-3-one], the MIC in the experiment on K. pneumoniae T6474 was found to be 1 µg/mL; in the experiment with S. aureus A798, 2 µg/mL; against E. coli ATCC25922, 1 µg/mL; in the experiment on P. aeruginosa ATCC 27853, 1 µg/mL.
For `CC(CN)Oc1cccc(-c2cccc(CNCC[C@H]3CN(c4ccc5c(n4)NC(=O)CO5)C(=O)O3)c2)c1` (mixture of isomers) [Example 6, 6-((S)-5-(2-(((3′-(((RS)-1-aminopropan-2-yl)oxy)-[1,1′-biphenyl]-3-yl)methyl)amino)ethyl)-2-oxooxazolidin-3-yl)-2H-pyrido[3,2-b][1,4]oxazin-3(4H)-one], the minimum inhibitory concentration (MIC) with K. pneumoniae T6474, in the experiment on S. aureus A798, against E. coli ATCC25922 and against P. aeruginosa ATCC 27853 was 4 µg/mL in each case.
As for `CNCCOc1cncc(-c2cccc(CNCC[C@H]3CN(c4ccc5c(n4)NC(=O)CO5)C(=O)O3)c2)n1` [Example $164, 6-[(S)-5-(2-{3-[6-(2-methylamino-ethoxy)-pyrazin-2-yl]-benzylamino}-ethyl)-2-oxo-oxazolidin-3-yl]-4H-pyrido[3,2-b][1,4]oxazin-3-one], the MIC against K. pneumoniae T6474 came out at 1 µg/mL (≈ 1.92 µM); against S. aureus A798 it was 0.5 µg/mL (≈ 0.962 µM); against E. coli ATCC25922, 1 µg/mL (≈ 1.92 µM); with P. aeruginosa ATCC 27853, 0.5 µg/mL (≈ 0.962 µM).
For `CNCCOc1cccc(-c2cccc(CNCC[C@H]3CN(c4ccc5c(n4)NC(=O)CO5)C(=O)O3)c2)n1` [Example $163, 6-[(S)-5-(2-{3-[6-(2-methylamino-ethoxy)-pyridin-2-yl]-benzylamino}-ethyl)-2-oxo-oxazolidin-3-yl]-4H-pyrido[3,2-b][1,4]oxazin-3-one], the minimum inhibitory concentration (MIC) in the experiment with K. pneumoniae T6474 came out at 2 µg/mL (≈ 3.86 µM); in the experiment on S. aureus A798 it was 0.5 µg/mL (≈ 0.964 µM); in the experiment on E. coli ATCC25922 it was 0.5 µg/mL (≈ 0.964 µM); with P. aeruginosa ATCC 27853, 0.5 µg/mL (≈ 0.964 µM).
On to `O=C1COc2ccc(N3C[C@H](CCNCc4cccc(-c5cccc(OC[C@H]6CCN6)n5)c4)OC3=O)nc2N1` [Example $124, 6-[(S)-5-(2-{3-[6-((R)-1-azetidin-2-ylmethoxy)-pyridin-2-yl]-benzylamino}-ethyl)-2-oxo-oxazolidin-3-yl]-4H-pyrido[3,2-b][1,4]oxazin-3-one], for which the MIC was found to be 2 µg/mL (≈ 3.77 µM) in the experiment with K. pneumoniae T6474, 1 µg/mL (≈ 1.88 µM) with S. aureus A798, 1 µg/mL (≈ 1.88 µM) against E. coli ATCC25922 and 0.5 µg/mL (≈ 0.942 µM) against P. aeruginosa ATCC 27853.
